Among the data in patent US20170152258A9, “Substituted Pyridopyrazines as Syk Inhibitors” (HUTCHISON MEDIPHARMA LIMITED, priority 2012, published 2017) are IC50 values, retold here.

Broadly, the IC50 is the concentration needed to halve the response being measured. High values mean weaker potency, low ones greater potency.

In the assay the target is Syk kinase (Homo sapiens, UniProt P43405). The experiment in a line: SYK Enzymatic Assay (Z-LYTE Tyr 2 peptide). The class given is biochemical. The conditions noted are these: 8 concentrations 1 μM down to 0.0003 μM. On the procedure: Syk kinase assay are performed in vitro using Kit-Tyr 2 Peptide (Invitrogen, Cat. No. PV3191) and in a 384-well assay plate. […] The 384-well assay plate (Corning, Cat. No. 3575) is mixed and incubated at room temperature for 1 hour. 10 μL of the Development Solution (prepared by diluting Development Reagent A (Cat. No. PV3297) to 1/32 with Development Buffer (Cat. No. PV3127)) is then added to each well, mixed and incubated at room temperature for another 1 hour. The reactions are then stopped by adding 10 μL of the Stop Reagent (Invitrogen, Cat. No. PV3094), and the plate is read with Wallac 1420 VICTOR^3 Multilabel Counter (PerkinElmer™) at 445 nm and 520 nm fluorescence. All compounds are tested at 8 concentrations (1 μM down to 0.0003 μM) using a 1:3 serial dilution scheme.
The molecule `COC(C)c1ccc(-c2cc3nccnc3c(OC[C@@H]3CN(C(C)=O)CCO3)n2)cc1` (some centres unmarked) [Compound 280] showed an IC50 of 113 nM. Take `CS(=O)(=O)N1CCO[C@H](COc2nc(-c3ccc(N4CCCC4)cc3)cc3nccnc23)C1` [Compound 37]: 40 nM corresponded to half-maximal inhibition (IC50). The figure for `CC(=O)N1CCO[C@H](COc2nc(-c3ccc(C4(O)CCC4)cc3)cc3nccnc23)C1` [Compound 309] is 127 nM; for `N#CC1(c2ccc(-c3cc4nccnc4c(OC[C@@H]4CN(C(N)=O)CCO4)n3)cc2)CC1` [Compound 275] it is 76 nM.

As for `Cn1cc(-c2cc3nccnc3c(OC[C@@H]3CN(S(C)(=O)=O)CCO3)n2)cn1` [Compound 46], the IC50 is 192 nM. With `CC(Oc1nc(-c2ccc(N(C)C)cc2)cc2nccnc12)C1CN(S(C)(=O)=O)CCO1` (centres unmarked) [Compound 240], half-maximal inhibition (IC50) required 262 nM.

As to `CNc1ccc(-c2cc3nccnc3c(OC[C@@H]3CN(C(C)=O)CCO3)n2)cc1` [Compound 47], the IC50 amounted to 122 nM.

In turn, `CN(C)c1ccc(-c2cc3nccnc3c(OC[C@@H]3CN(S(=O)(=O)C4CCCCC4)CCO3)n2)cc1` [Compound 91] yielded an IC50 of 474 nM. As for `c1cnc2c(OCCc3cn[nH]c3)nc(-c3ccc(N4CCOCC4)cc3)cc2n1` [Compound 2, 4-(4-(5-(2-(1H-pyrazol-4-yl)ethoxy)pyrido[3,4-b]pyrazin-7-yl)phenyl)morpholine], the IC50 worked out at 552 nM. As for `CN(C)CCc1ccc(-c2cc3nccnc3c(OC[C@@H]3CN(S(C)(=O)=O)CCO3)n2)cc1` [Compound 272], the IC50 is 178 nM.

In turn, `CS(=O)(=O)N1CCC(c2ccc(-c3cc4nccnc4c(O[C@@H]4CCCOC4)n3)cc2)CC1` [Compound 180] registered an IC50 of 177 nM. The figure for `CC(Oc1nc(-c2ccc(N(C)C)cc2)cc2nccnc12)C1CN(C(N)=O)CCO1` (centres unmarked) [Compound 234] is 193 nM; for `CC(C)S(=O)(=O)N1CCO[C@H](COc2nc(-c3ccc(N4CCOCC4)cc3)cc3nccnc23)C1` [Compound 82] it is 113 nM; for `CC(=O)N1CCO[C@H](COc2nc(-c3ccc(N4CCNCC4)c(C)c3)cc3nccnc23)C1` [Compound 182] it is 110 nM. As for `CC(=O)N1CCO[C@H](COc2nc(-c3ccc(C(O)C(C)(C)C)cc3)cc3nccnc23)C1` (some centres unmarked) [Compound 285], the figure is 258 nM; as for `O=C1CCC(COc2nc(-c3ccc(N4CCOCC4)cc3)cc3nccnc23)CN1` (centres unmarked) [Compound 4, 5-(((7-(4-morpholinophenyl)pyrido[3,4-b]pyrazin-5-yl)oxy)methyl)piperidin-2-one], 160 nM; as for `CNC(=O)N1CCOC(C(C)Oc2nc(-c3ccc(N(C)C)cc3)cc3nccnc23)C1` (centres unmarked) [Compound 235], 212 nM. Turning to `CS(=O)(=O)N1CCN(c2ccc(-c3cc4nccnc4c(O[C@@H]4CCCOC4)n3)cc2)CC1` [Compound 179], the IC50 stood at 190 nM. Molecule `CC(=O)N1CCO[C@H](COc2nc(-c3ccc(C(C)(CO)CO)cc3)cc3nccnc23)C1` [Compound 278] gave an IC50 of 175 nM. With `CN(C)c1ccc(-c2cc3nccnc3c(OC[C@@H]3CN(C(=O)CCCC#N)CCO3)n2)cc1` [Compound 81], the IC50 worked out at 166 nM. In turn, `CN(C)c1ccc(-c2cc3nccnc3c(OC[C@@H]3CN(C(=O)C4CC4(F)F)CCO3)n2)cc1` (some centres unmarked) [Compound 96] registered an IC50 of 134 nM. For `CS(=O)(=O)N1CCO[C@H](COc2nc(-c3ccc(Cl)cc3)cc3nccnc23)C1` [Compound 40], inhibition was half-maximal at 338 nM (IC50). As for `COCCNc1ccc(-c2cc3nccnc3c(OC[C@@H]3CN(C(C)=O)CCO3)n2)cc1` [Compound 114], the figure is 122 nM; as for `CC(=O)N1CCO[C@H](COc2nc(-c3ccc(C4(C#N)CCC4)cc3)cc3nccnc23)C1` [Compound 289], 115 nM. Take `CN(C)c1ccc(-c2cc3nccnc3c(OCC3CCCCO3)n2)cc1` (centres unmarked) [Compound 167]: the IC50 turned out to be 405 nM.

The molecule `CNC(=O)N1CCOC(C(C)Oc2nc(-c3ccc(N(C)C)cc3)cc3nccnc23)C1` (centres unmarked) [Compound 239] had an IC50 of 451 nM. The figure for `CS(=O)(=O)N1CCC(c2ccc(-c3cc4nccnc4c(OCC4OCCNC4=O)n3)cc2)CC1` (centres unmarked) [Compound 320] is 119 nM.

As for `CN(C)S(=O)(=O)N1CCO[C@H](COc2nc(-c3ccc(N4CCOCC4)cc3)cc3nccnc23)C1` [Compound 56], it took 121 nM to reach half-maximal inhibition (IC50). `COc1ccc(-c2cc3nccnc3c(OC[C@@H]3CN(S(C)(=O)=O)CCO3)n2)cc1F` [Compound 35] displayed an IC50 of 131 nM. `CC(=O)NC(C)(C)c1ccc(-c2cc3nccnc3c(OC[C@@H]3CN(S(C)(=O)=O)CCO3)n2)cc1` [Compound 313] showed an IC50 of 104 nM. As for `CN(C)c1ccc(-c2cc3nccnc3c(OC[C@@H]3CN(C(=O)CCc4cccnc4)CCO3)n2)cc1` [Compound 79], the figure is 231 nM; as for `CC(=O)N1CCOC(C(C)Oc2nc(-c3ccc(N(C)C)cc3)cc3nccnc23)C1` (centres unmarked) [Compound 233], 386 nM; as for `CC(=O)N1CCO[C@H](COc2nc(-c3ccc(C(C)C)cc3)cc3nccnc23)C1` [Compound 160], 102 nM. As for `CC(Oc1nc(-c2ccc(N(C)C)cc2)cc2nccnc12)C1CN(C(N)=O)CCO1` (centres unmarked) [Compound 238], the figure is 275 nM; as for `CN(C)c1ccc(-c2cc3nccnc3c(OCC3CCCO3)n2)cc1` (centres unmarked) [Compound 168], 211 nM.

As to `CC(=O)N1CCC(c2ccc(-c3cc4nccnc4c(O[C@@H]4CCCOC4)n3)cc2)CC1` [Compound 191], the IC50 is 115 nM.

`CC(=O)N1CCO[C@H](COc2nc(-c3ccc(C(C)(C)N)cc3)cc3nccnc23)C1` [Compound 245] returned an IC50 of 449 nM. As for `CN(C)c1ccc(-c2cc3nccnc3c(OC[C@@H]3CN(C(=O)C4(C#N)CC4)CCO3)n2)cc1` [Compound 97], the figure is 144 nM; as for `CN1C[C@@H](COc2nc(-c3ccc(C(C)(C)O)cc3)cc3nccnc23)OCC1=O` [Compound 310], 588 nM; as for `CS(=O)(=O)N1CCC(c2ccc(-c3cc4nccnc4c(OCC4CCCCO4)n3)cc2)CC1` (centres unmarked) [Compound 169], 272 nM. `CC(=O)N1CCO[C@H](COc2nc(-c3ccc(C4CCNCC4)cc3)cc3nccnc23)C1` [Compound 162]: the IC50 amounted to 151 nM. As for `CN(C)c1ccc(-c2cc3nccnc3c(OC3CCOCC3)n2)cc1` [Compound 107], the figure is 919 nM; as for `CS(=O)(=O)N1CCO[C@H](COc2nc(-c3ccc(OC(F)F)cc3)cc3nccnc23)C1` [Compound 34], 227 nM. For the molecule `COc1cc(-c2cc3nccnc3c(OC[C@@H]3CN(C(C)=O)CCO3)n2)ccc1OC(C)C` [Compound 147], the IC50 is 115 nM.

Molecule `C=C(C)c1ccc(-c2cc3nccnc3c(OC[C@@H]3CN(S(C)(=O)=O)CCO3)n2)cc1` [Compound 277, (S)-4-(methylsulfonyl)-2-(((7-(4-(prop-1-en-2-yl)phenyl)pyrido[3,4-b]pyrazin-5-yl)oxy)methyl)morpholine] showed an IC50 of 192 nM.

The molecule `OC1CCC(Oc2nc(-c3ccc(N4CCOCC4)cc3)cc3nccnc23)CC1` (centres unmarked) [Compound 1, 4-(7-(4-morpholinophenyl)pyrido[4,3-b]pyrazin-5-yloxy)cyclohexanol] had an IC50 of 270 nM. The figure for `COc1ccc(-c2cc3nccnc3c(OC[C@@H]3CN(C(C)=O)CCO3)n2)cc1OC` [Compound 132] is 109 nM.
